According to patent US20230227484A1, “PYRIMIDINE COMPOUND AS AXL INHIBITOR” (NANJING CHIA TAI TIANQING PHARMACEUTICAL CO., LTD., priority 2020, published 2023):

What was measured:
[1] = tested on: MV-4-11 (human myeloid monocytic leukemia cell line); test: Proliferation inhibition activity of compounds to MV-4-11 cells (CellTiter-Glo); format: cell-based; details: MV4-11 cells, 72 h dosing
Experimental: MV-4-11 (human myeloid monocytic leukemia cell line, culture medium: JIMDM+10% fetal bovine serum) is purchased from Cobioer Biosciences Co., Ltd and cultured in a 5% C02 incubator at 37° C. The cells in a logarithmic growth phase are plated in a 96-well plate at cell densities of 8000 cells/well, 6000 cells/well, 2000 cells/well, 2000 cells/well and 3000 cells/well, and a blank control group is set at the same time.
A compound to be tested and the positive drug are dissolved in dimethyl sulfoxide to prepare a 10 mM stock solution, which is then stored in −80° C. refrigerator for long-time storage. After the cells are plated for 24 h, the 10 mM compound stock solution is diluted with dimethyl sulfoxide to obtain a working solution having a 200-fold concentration (the highest concentration is 200 or 2000 μM, a 3-fold gradient, a total of 10 concentrations), and 3 μL of the working solution of each concentration is added to 197 μL of complete medium, and diluted into a working solution of 3-fold concentration. 50 μL of the working solution is then taken and added to a 100 μL cell culture medium (a final concentration of dimethyl sulfoxide is 0.5%, v/v), and two complex holes are set for each concentration. After 72 h of dosing treatment, 50 μl of CellTiter-Glo® (purchased from Promega) is added to each well. Fluorescence signals are measured on Envision (PerkinElmer) according to an operating procedure of the specification. GraphPad Prism 5 software log(inhibitor) vs. response-Variable slope is used to fit a dose-response curve, so as to obtain the IC50 value of the compound to the inhibition of cell-proliferation. The calculation formulation of the inhibition rate is as follows: […]
wherein: signal value of subject: a mean fluorescence signal of cell+medium+compound group; signal value of blank group: a mean fluorescence signal of medium group (containing 0.5% DMSO); signal value of negative control group: a mean fluorescence signal of cell+medium group (containing 0.5% DMSO).

AXL kinase = target: T1, AXL kinase (Homo sapiens, UniProt P30530); test: Inhibitory activity of compound against AXL kinase (HTRF KinEASE); format: biochemical; details: AXL enzyme (Carna, 08-107), ATP 15 μM; "<" means below detection limit of the test
T1 construct: purchased Carna 08-107
T1 sequence (P30530 473-894 limits assumed): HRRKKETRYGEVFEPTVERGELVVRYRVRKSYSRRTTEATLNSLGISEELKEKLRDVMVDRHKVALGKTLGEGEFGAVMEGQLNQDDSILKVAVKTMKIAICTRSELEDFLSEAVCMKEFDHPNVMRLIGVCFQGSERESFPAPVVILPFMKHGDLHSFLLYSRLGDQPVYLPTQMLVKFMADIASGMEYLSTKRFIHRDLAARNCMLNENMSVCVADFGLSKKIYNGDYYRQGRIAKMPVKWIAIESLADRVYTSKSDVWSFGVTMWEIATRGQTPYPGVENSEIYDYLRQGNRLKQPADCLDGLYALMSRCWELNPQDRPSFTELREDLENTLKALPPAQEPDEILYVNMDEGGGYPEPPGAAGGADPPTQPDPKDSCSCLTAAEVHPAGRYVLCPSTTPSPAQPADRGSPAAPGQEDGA
Experimental: a) AXL enzyme (Carna, 08-107) configuration and addition: a 1×enzyme buffer (200 μL of Enzymatic buffer kinase 5×, 10 μL of 500 mM MgCl2, 10 μL of 100 mM DTT and 6.26 μL of 2500 nM SEB are added with […] of H2O, and prepared into 1 ml of 1× enzyme buffer) is used. AXL enzyme is diluted from 33.33 ng/uL to 0.027 ng/μL (1.67×, final conc.=0.016 ng/uL), a BioTek (MultiFlo FX) automatic liquid dispenser is used, and 6 μL of enzyme solution having a 1.67-fold final concentration is added respectively to compound wells and positive control wells; and 6 μL of 1×Enzymatic buffer is added to negative control wells.
b) Compound preparation and addition: the compounds and positive drugs prepared in the examples are diluted from 10 mM to 100 μM by DMSO, and titrated with a compound titrator (Tecan, D300e). The titrated solution is automatically sprayed by the titrator to each well to reach a required concentration, wherein the first concentration is 1 μM, and after ½ log dilution, a total of 8 concentrations are obtained. The resulting mixture is centrifuged at 2500 rpm for 30 s and incubated at room temperature for 15 min.
c) Preparation and addition of ATP and substrate: ATP (Sigma, A7699) is diluted with 1× enzyme buffer from 10 mM to 75 μM (5×), and the final concentration is 15 μM; the substrate TK Substrate 3-biotin (Cisbio, 61TK0BLC) is diluted with 1× enzyme buffer from 500 μM to 5 μM (5×), andthe final concentration is […]; ATP and the substrate are mixed in equal volume to obtain a mixed solution; the mixed solution is added to each well at 4 μL by using a BioTek automatic dispenser; centrifuged at 2500 rpm for 30 s, and reacted at 25° C. for 45 min.
d) Pirparation and addition of detection reagent: Streptavidin-XL665 (Cisbio, 610SAXLG) is diluted with HTRF KinEASE detection buffer (cisbio) from 16.67 μM to 250 nM (4×), and the final concentration is 62.5 nM; TK Antibody-Cryptate (Cisbio) is diluted with HTRF KinEASE detection buffer (cisbio) from 100× to 5×, and the final concentration is 1×; XL665 and Antibody are mixed in equal volume; the mixed solution is added to each well at 10 μL by using the BioTek automatic dispenser, centrifuged at 2500 rpm for 30 s, and reacted at 25° C. for 1 h. After the reaction is completed, the resulting product is detected by a multi-function plate reader HTR1p
GraphPad Prism 5 software log (inhibitor) vs. response-Variable slope is used to fit a dose-response curve to obtain the IC50 value of the compound to the inhibition of AXL kinase.
The calculation formula of the inhibition rate is as follows: […]

SMILES | IC50 [1] [nM] | IC50 (AXL kinase) [nM]
CN(C)S(=O)(=O)c1ccccc1Nc1nc(Nc2ccc3c(c2)CC[C@@H](N2CCCC2)CC3)ncc1Cl [Example 1, (S)-2-((5-chloro-2-((7-(pyrrolidin-1-yl)-6,7,8,9-tetrahydro-5H-benzo[7]annulen-2-yl)amino)pyrimidin-4-yl)amino)-N,N-dimethyl benzenesulfonamide] | 6.83 | 0.33
CNC(=O)c1cc(F)ccc1Nc1nc(Nc2ccc3c(c2)CCN(C2CCOCC2)CC3)ncc1Cl [Example 46, 2-((5-chloro-2-((3-(tetrahydro-2H-pyran-4-yl)-2,3,4,5-tetrahydro-1H-benzo[d]aza-7-yl)amino)pyrimidin-4-yl)amino)-5-fluoro-N-methylbenzamide] | 1.63 | 0.8
CN1Cc2cccc(Nc3nc(Nc4ccc5c(c4)CCN(C4CCOCC4)CC5)ncc3Cl)c2C1=O [Example 49, 7-((5-chloro-2-((3-(tetrahydro-2H-pyran-4-yl)-2,3,4,5-tetrahydro-1H-benzo[d]aza-7-yl)amino)pyrimidin-4-yl)amino)-2-methylisoindolin-1-one] | 8.3 | 9.85
CS(=O)(=O)Nc1ccccc1Nc1nc(Nc2ccc3c(c2)CC[C@@H](N2CCCC2)CC3)ncc1Cl [Example 30, (S)—N-(2-((5-chloro-2-((7-(pyrrolidin-1-yl)-6,7,8,9-tetrahydro-5H-benzo[7]annulen-2-yl)amino)pyrimidin-4-yl)amino)phenyl)methanesulfonamide] | 2.64 | 1.05
O=C(NC1CCOC1)c1ccccc1Nc1nc(Nc2ccc3c(c2)CC[C@@H](N2CCCC2)CC3)ncc1Cl (stereo partly drawn) [Example 39] | 6.4 | 2.59
COCc1ccc(Nc2nc(Nc3ccc4c(c3)CCC(N3CC5CC3C5)CC4)ncc2Cl)c(P(C)(C)=O)c1 (single isomer, unassigned) [Example 116 Isomer 116-1, (2-((2-((7-(2-azabicyclo[2.1.1]hexan-2-yl)-6,7,8,9-tetrahydro-5H-benzo[7]annulen-2-yl)amino)-5-chloropyrimidin-4-yl)amino)-5-(methoxymethyl)phenyl)dimethyl phosphine oxide] | 10.1 | 4.94
CP(C)(=O)c1cc(O)ccc1Nc1nc(Nc2ccc3c(c2)CC[C@@H](N2CCCC2)CC3)ncc1Cl [Example 61, (S)-(2-((5-chloro-2-((7-(pyrrolidin-1-yl)-6,7,8,9-tetrahydro-5H-benzo[7]annulen-2-yl)amino)pyrimidin-4-yl)amino)-5-hydroxyphenyl)dimethyl phosphine oxide] | 7.1 | 2.38
CP(C)(=O)c1cc(F)c(Cl)cc1Nc1nc(Nc2ccc3c(c2)CC[C@@H](N2CCCC2)CC3)ncc1Cl [Example 118, (S)-(4-chloro-2-((5-chloro-2-((7-(pyrrolidin-1-yl)-6,7,8,9-tetrahydro-5H-benzoannulen-2-yl)amino)pyrimidin-4-yl)amino)-5-fluorophenyl)dimethyl phosphine oxide] | 30.3 | 5.45
CP(C)(=O)c1cc(OC(F)F)ccc1Nc1nc(Nc2ccc3c(c2)CC[C@@H](N2CCCC2)CC3)ncc1Cl [Example 75, (S)-(2-((5-chloro-2-((7-(pyrrolidin-1-yl)-6,7,8,9-tetrahydro-5H-benzo[7]annulen-2-yl)amino)pyrimidin-4-yl)amino)-5-(difluoromethoxyl)phenyl)dimethyl phosphine oxide] | 2.93 | –

Continued, values first:

IC50 [1] [nM] | IC50 (AXL kinase) [nM] | SMILES
4.28 | 2.08 | O=S(=O)(Nc1ccccc1Nc1nc(Nc2ccc3c(c2)CC[C@@H](N2CCCC2)CC3)ncc1Cl)C1CC1 [Example 41, (S)—N-(2-((5-chloro-2-((7-(pyrrolidin-1-yl)-6,7,8,9-tetrahydro-5H-benzo[7]annulen-2-yl)amino)pyrimidin-4-yl)amino)phenyl)cyclopropanesulfonamide]
9.15 | 2.41 | CC(C)(O)c1ccccc1Nc1nc(Nc2ccc3c(c2)CC[C@@H](N2CCCC2)CC3)ncc1Cl [Example 15, (S)-2-(2-((5-chloro-2-((7-(pyrrolidin-1-yl)-6,7,8,9-tetrahydro-5H-benzo[7]annulen-2-yl)amino)pyrimidin-4-yl)amino)phenyl)propan-2-ol]
4.93 | 0.72 | Clc1cnc(Nc2ccc3c(c2)CC[C@@H](N2CCCC2)CC3)nc1Nc1ccccc1CN1CCOCC1 [Example 40, (S)-5-chloro-N^4-(2-(morpholinmethyl)phenyl)-N^2-(7-(pyrrolidin-1-yl)-6,7,8,9-tetrahydro-5H-benzo[7]annulen-2-yl)pyrimidine-2,4-diamine]
10.1 | – | CNC(=O)c1ccc(Nc2nc(Nc3ccc4c(c3)CC[C@@H](N3CCCC3)CC4)ncc2Cl)c(P(C)(C)=O)c1 [Example 77, (S)-4-((5-chloro-2-((7-(pyrrolidin-1-yl)-6,7,8,9-tetrahydro-5H-benzo[7]annulen-2-yl)amino)pyrimidin-4-yl)amino)-3-(dimethylphosphoryl)-N-methylbenzamide]
8.56 | – | CP(C)(=O)c1cc(-n2cnnn2)ccc1Nc1nc(Nc2ccc3c(c2)CC[C@@H](N2CCCC2)CC3)ncc1Cl [Example 109, (S)-(2-((5-chloro-2-((7-(pyrrolidin-1-yl)-6,7,8,9-tetrahydro-5H-benzo[7]annulen-2-yl)amino)pyrimidin-4-yl)amino)-5-(1H-tetrazol-1-yl)phenyl)dimethyl phosphine oxide]
7.98 | – | CP(C)(=O)c1cc(OC(F)(F)F)ccc1Nc1nc(Nc2ccc3c(c2)CC[C@@H](N2CCCC2)CC3)ncc1Cl [Example 76, (S)-(2-((5-chloro-2-((7-(pyrrolidin-1-yl)-6,7,8,9-tetrahydro-5H-benzo[7]annulen-2-yl)amino)pyrimidin-4-yl)amino)-5-(trifluoromethoxyl)phenyl)dimethyl phosphine oxide]
3.13 | – | Cc1ccc(Nc2nc(Nc3ccc4c(c3)CC[C@@H](N3CCCC3)CC4)ncc2Cl)c(P(C)(C)=O)n1 [Example 81, (S)-(3-((5-chloro-2-((7-(pyrrolidin-1-yl)-6,7,8,9-tetrahydro-5H-benzo[7]annulen-2-yl)amino)pyrimidin-4-yl)amino)-6-methylpyridin-2-yl)dimethyl phosphine oxide]
